The assay concerns blood pressure of anesthetized Sprague-Dawley IGS male rats. Description: Hypotensive activity in anesthetized rats, invasive blood pressure measurement after intravenous administration. As to conditions: for Hypotensive activity (dose/rat) 10 nmol / Hypotensive activity (dose/rat) 30 nmol / Hypotensive activity (dose/rat) 100 nmol: anesthetized rats, intravenous; for Hypotensive activity (dose/rat) 10 nmol: 10 nmol/rat; for Hypotensive activity (dose/rat) 30 nmol: 30 nmol/rat; for Hypotensive activity (dose/rat) 100 nmol: 100 nmol/rat; for dose dependence of hypotensive activity: anesthetized rats, 10, 30, 100 nmol/rat. In kind it is in vivo, rat. Here is the method:
50 mg/kg pentobarbital sodium was intraperitoneally administered to 8- to 10-week-old Sprague-Dawley IGS male rats (Charles River Laboratories Japan, Inc.) for anesthesia. Thereafter, a tracheal cannula (PE 250), a femoral vein cannula (PE50), and a femoral artery cannula (PESO) were inserted into each rat. The femoral artery cannula was connected with a pressure transducer (PE23XL; manufactured by Nihon Kohden Corporation), and an apparatus formed by incorporating a blood pressure measurement unit (AP-641G; manufactured by Nihon Kohden Corporation) and an instantaneous heart rate measurement unit (AT-601G; manufactured by Nihon Kohden Corporation) into a multi-purpose preamplifier (RP-6004; manufactured by Nihon Kohden Corporation) was used to record the blood pressure and heart rate of each rat. The blood pressure was calibrated using a mercury manometer included in a stand-type electromanometer (MP-25S; manufactured by Nihon Kohden Corporation). The recording paper was adjusted, such that 10 mm or 20 mm on the recording paper corresponded to 100 mmHg.
Each peptide was dissolved in a concentration of 1 mM or 10 mM in a 0.1% acetic acid solution to prepare a peptide solution. Thereafter, depending on dose, it was diluted with a normal saline containing 0.1% bovine serum albumin (Fr.V). In the case of the dose of 10 nmol/rat, a 1 mM peptide solution was 10 times diluted, and 100 μl of the diluted solution was administered. In the case of the dose of 30 nmol/rat, a 1 mM peptide solution was 10 times diluted, and 300 μL, of the diluted solution was administered. In the case of the dose of 100 nmol/rat, a 10 mM peptide solution was 10 times diluted, and 100 μL of the diluted solution was administered. Each peptide was intravenously administered via the femoral vein cannula, and the systolic blood pressure, diastolic blood pressure, and heart rate were then measured.
Various HC021 derivative peptides were synthesized in accordance with Example 1, and such peptide was then administered to each rat at a dose of 10 nmol/rat, 30 nmol/rat, or 100 mol/rat by the method described in Example 2. Thereafter, the hypotensive activity of each derivative peptide was measured. […] The strength of such activity was determined using a median of activity in repeated experiments. In addition, in order to make a comparison among the activities of various derivative peptides, the strength of hypotensive activity was defined as follows.
Strength of Hypotensive Activity
Extremely strong activity (+++): A decrease in systolic blood pressure is 30 mmHg or more, and the time required for recovery is 5 minutes or more.
Strong activity (++): A decrease in systolic blood pressure is 20 mmHg or more and less than 30 mmHg, or the time required for recovery is less than 5 minutes.
Activity observed (+): A decrease in systolic blood pressure is less than 20 mmHg.
Activity not observed (−)
Various HC021 peptide sequence-substituted products were synthesized in accordance with Example 1, and their hypotensive activity was then measured according to the method of Example 3.

Where no end group is shown, it is not given here.

This note sets out measurements from patent publication US20110039783A1, “PEPTIDE HAVING HYPOTENSIVE ACTIVITY” (DAIICHI SANKYO COMPANY LIMITED, priority 2007, published 2011).

Regarding “LFFRRLQAYFK-amide (LFFRRLQAYFK-NH2) [Compound 19]”, the “dose dependence of hypotensive activity” value is on record as “enhanced their hypotensive activity in a dose-dependent manner”. Further, for the setting “Table 2”, the “Hypotensive activity (dose/rat) 10 nmol” value was “+ (Activity observed (+): A decrease in systolic blood pressure is less than 20 mmHg.)”; the “Hypotensive activity (dose/rat) 30 nmol” value is “++ (Strong activity (++): A decrease in systolic blood pressure is 20 mmHg or more and less than 30 mmHg, or the time required for recovery is less than 5 minutes.)”; the “Hypotensive activity (dose/rat) 100 nmol” value is “+++ (Extremely strong activity (+++): A decrease in systolic blood pressure is 30 mmHg or more, and the time required for recovery is 5 minutes or more.)”. In addition, under “Table 3”, the “Hypotensive activity (dose/rat) 10 nmol” value is on record as “+ (Activity observed (+): A decrease in systolic blood pressure is less than 20 mmHg.)”; the “Hypotensive activity (dose/rat) 30 nmol” value is “++ (Strong activity (++): A decrease in systolic blood pressure is 20 mmHg or more and less than 30 mmHg, or the time required for recovery is less than 5 minutes.)”; the “Hypotensive activity (dose/rat) 100 nmol” value was “+++ (Extremely strong activity (+++): A decrease in systolic blood pressure is 30 mmHg or more, and the time required for recovery is 5 minutes or more.)”.
As to NRDLFFRRLQAYFKGR [Compound 13], where the note is “Table 2”, the “Hypotensive activity (dose/rat) 30 nmol” value is recorded as “−”; the “Hypotensive activity (dose/rat) 100 nmol” value is “++ (Strong activity (++): A decrease in systolic blood pressure is 20 mmHg or more and less than 30 mmHg, or the time required for recovery is less than 5 minutes.)”.
As to “ATLGSEDTWKPLSNPRNRELFFRSLQAYFK-amide [Compound 37]”, where the note is “Table 3”, the “Hypotensive activity (dose/rat) 10 nmol” value is recorded as “−”; the “Hypotensive activity (dose/rat) 30 nmol” value is “−”; the “Hypotensive activity (dose/rat) 100 nmol” value is “++ (Strong activity (++): A decrease in systolic blood pressure is 20 mmHg or more and less than 30 mmHg, or the time required for recovery is less than 5 minutes.)”.
Take “NGATVRNEDKWKPLNNPRNRDLFFRRLQAYFK-amide [Compound 6]”: under “Table 2”, the “Hypotensive activity (dose/rat) 10 nmol” value is “−” and the “Hypotensive activity (dose/rat) 30 nmol” value is “+ (Activity observed (+): A decrease in systolic blood pressure is less than 20 mmHg.)”.
Take “LFFRRLQAHFK-amide (LFFRRLQAHFK-NH2) [Compound 47]”: where the note is “Table 3”, the “Hypotensive activity (dose/rat) 10 nmol” value is recorded as “−”; the “Hypotensive activity (dose/rat) 30 nmol” value is given as “−”; the “Hypotensive activity (dose/rat) 100 nmol” value is “+++ (Extremely strong activity (+++): A decrease in systolic blood pressure is 30 mmHg or more, and the time required for recovery is 5 minutes or more.)”.
On to “NRDLFFRRLQAYFKGR-amide (NRDLFFRRLQAYFKGR-NH2) [Compound 14]”, for which the “dose dependence of hypotensive activity” value is on record as “enhanced their hypotensive activity in a dose-dependent manner”. In addition, where the note is “Table 2”, the “Hypotensive activity (dose/rat) 10 nmol” value was “+ (Activity observed (+): A decrease in systolic blood pressure is less than 20 mmHg.)”; the “Hypotensive activity (dose/rat) 30 nmol” value was “++ (Strong activity (++): A decrease in systolic blood pressure is 20 mmHg or more and less than 30 mmHg, or the time required for recovery is less than 5 minutes.)”.
“FVPIFTYGELQRMQNRDLFFRRLQAYFK-amide (FVPIFTYGELQRMQNRDLFFRRLQAYFK-NH2) [Compound 39]”: for the setting “Table 3”, the “Hypotensive activity (dose/rat) 10 nmol” value is listed as “−”; the “Hypotensive activity (dose/rat) 30 nmol” value is “−”; the “Hypotensive activity (dose/rat) 100 nmol” value was “+++ (Extremely strong activity (+++): A decrease in systolic blood pressure is 30 mmHg or more, and the time required for recovery is 5 minutes or more.)”.
For LFFRRLQAYFKGRGLDLGTFPNPF [Compound 27], the “Hypotensive activity (dose/rat) 10 nmol” value (Table 2) was “+++ (Extremely strong activity (+++): A decrease in systolic blood pressure is 30 mmHg or more, and the time required for recovery is 5 minutes or more.)”.
Take “FRRLQAYFK-amide (FRRLQAYFK-NH2) [Compound 21]”: under “Table 2”, the “Hypotensive activity (dose/rat) 30 nmol” value was “−” and the “Hypotensive activity (dose/rat) 100 nmol” value was “−”.
Take “LFFRRLQALFK-amide (LFFRRLQALFK-NH2) [Compound 44]”: where the note is “Table 3”, the “Hypotensive activity (dose/rat) 10 nmol” value is listed as “−”; the “Hypotensive activity (dose/rat) 30 nmol” value was “++ (Strong activity (++): A decrease in systolic blood pressure is 20 mmHg or more and less than 30 mmHg, or the time required for recovery is less than 5 minutes.)”.
Regarding “FFRRLQAYFK-amide (FFRRLQAYFK-NH2) [Compound 20]”, for the setting “Table 2”, the “Hypotensive activity (dose/rat) 30 nmol” value is reported as “−” and the “Hypotensive activity (dose/rat) 100 nmol” value is reported as “−”.
For the substance “NRDLFFRRLQAYFKG-amide (NRDLFFRRLQAYFKG-NH2) [Compound 12]”, the “dose dependence of hypotensive activity” value is listed as “enhanced their hypotensive activity in a dose-dependent manner”. Under “Table 2”, the “Hypotensive activity (dose/rat) 10 nmol” value is “−”; the “Hypotensive activity (dose/rat) 30 nmol” value was “++ (Strong activity (++): A decrease in systolic blood pressure is 20 mmHg or more and less than 30 mmHg, or the time required for recovery is less than 5 minutes.)”; the “Hypotensive activity (dose/rat) 100 nmol” value is “+++ (Extremely strong activity (+++): A decrease in systolic blood pressure is 30 mmHg or more, and the time required for recovery is 5 minutes or more.)”.
Consider “LFFRSLQAYFK-amide (LFFRSLQAYFK-NH2) [Compound 43]”, for which, under “Table 3”, the “Hypotensive activity (dose/rat) 10 nmol” value is “−”; the “Hypotensive activity (dose/rat) 30 nmol” value is “++ (Strong activity (++): A decrease in systolic blood pressure is 20 mmHg or more and less than 30 mmHg, or the time required for recovery is less than 5 minutes.)”.
Regarding “LFFRRLQAYFKASASADYEEQKNSFHNYLK- amide [Compound 49]”, where the note is “Table 3”, the “Hypotensive activity (dose/rat) 10 nmol” value is “+++ (Extremely strong activity (+++): A decrease in systolic blood pressure is 30 mmHg or more, and the time required for recovery is 5 minutes or more.)”.
As to “RRLQAYFK-amide (RRLQAYFK-NH2) [Compound 22]”, where the note is “Table 2”, the “Hypotensive activity (dose/rat) 30 nmol” value is “−” and the “Hypotensive activity (dose/rat) 100 nmol” value was “−”.
Take “ATLGSEDTWKPLSNPRNRELFFRSLQAYF-amide [Compound 38]”: under “Table 3”, the “Hypotensive activity (dose/rat) 10 nmol” value was “−”; the “Hypotensive activity (dose/rat) 30 nmol” value is given as “−”; the “Hypotensive activity (dose/rat) 100 nmol” value is “++ (Strong activity (++): A decrease in systolic blood pressure is 20 mmHg or more and less than 30 mmHg, or the time required for recovery is less than 5 minutes.)”.
As for “LFFRRLQAYFKGRGLDLGTFPNPFPTNENPR-amide [Compound 30]”, the “Hypotensive activity (dose/rat) 10 nmol” value (Table 2) is “+++ (Extremely strong activity (+++): A decrease in systolic blood pressure is 30 mmHg or more, and the time required for recovery is 5 minutes or more.)”; the “Hypotensive activity (dose/rat) 10 nmol” value (Table 3) was “+++ (Extremely strong activity (+++): A decrease in systolic blood pressure is 30 mmHg or more, and the time required for recovery is 5 minutes or more.)”.
For “ATVRNEDKWKPLNNPRNRDLFFRRLQAYF-amide [Compound 10]”, for the setting “Table 2”, the “Hypotensive activity (dose/rat) 10 nmol” value was “−”; the “Hypotensive activity (dose/rat) 30 nmol” value is “++ (Strong activity (++): A decrease in systolic blood pressure is 20 mmHg or more and less than 30 mmHg, or the time required for recovery is less than 5 minutes.)”.
As to “ATLRNEDTWKPLSNPRNRDLFFRRLQAYFK-amide [Compound 34]”, under “Table 3”, the “Hypotensive activity (dose/rat) 10 nmol” value is “−” and the “Hypotensive activity (dose/rat) 30 nmol” value was “+ (Activity observed (+): A decrease in systolic blood pressure is less than 20 mmHg.)”.
In the case of ATVRNEDKWKPLNNPRNRDLFF [Compound 1], where the note is “Table 1”, the “Hypotensive activity (dose/rat) 10 nmol” value is recorded as “−”, the “Hypotensive activity (dose/rat) 30 nmol” value is reported as “−” and the “Hypotensive activity (dose/rat) 100 nmol” value was “−”. In addition, under “Table 2”, the “Hypotensive activity (dose/rat) 10 nmol” value is on record as “−”, the “Hypotensive activity (dose/rat) 30 nmol” value is recorded as “−” and the “Hypotensive activity (dose/rat) 100 nmol” value was “−”.
On to LFFRRLQAYFK [Compound 18], for which, under “Table 2”, the “Hypotensive activity (dose/rat) 30 nmol” value is “−”; the “Hypotensive activity (dose/rat) 100 nmol” value is “++ (Strong activity (++): A decrease in systolic blood pressure is 20 mmHg or more and less than 30 mmHg, or the time required for recovery is less than 5 minutes.)”.
For “LFERRLQAYFKNGAEDESAEAFPLEF-amide (LFERRLQAYFKNGAEDESAEAFPLEF-NH2) [Compound 48]”, the “Hypotensive activity (dose/rat) 10 nmol” value (Table 3) was “+++ (Extremely strong activity (+++): A decrease in systolic blood pressure is 30 mmHg or more, and the time required for recovery is 5 minutes or more.)”.
